IC50 data for 29 molecules are collected here from US12673944B2, “Compounds having inhibitory activity against glucosylceramide synthase or pharmaceutically acceptable salt thereof, processes for preparing the same, and pharmaceutical compositions comprising the same” (YUHAN CORPORATION, priority 2019, dated 2026).

pIC50: −log10 of the molar value.

Assay [1] has as its system GM1 production in Jurkat cells. The assay is described as follows: cells. Type of assay: cell-based. Particulars: Homo sapiens, Jurkat, 72 h.
In assay [2] the target is T1, glucosylceramide synthase (GCS) (Homo sapiens, UniProt Q16739).
T1 construct: The obtained supernatant was used; host or cells: A549 cells (lysate supernatant after sonication)
T1 sequence (Q16739 1-394): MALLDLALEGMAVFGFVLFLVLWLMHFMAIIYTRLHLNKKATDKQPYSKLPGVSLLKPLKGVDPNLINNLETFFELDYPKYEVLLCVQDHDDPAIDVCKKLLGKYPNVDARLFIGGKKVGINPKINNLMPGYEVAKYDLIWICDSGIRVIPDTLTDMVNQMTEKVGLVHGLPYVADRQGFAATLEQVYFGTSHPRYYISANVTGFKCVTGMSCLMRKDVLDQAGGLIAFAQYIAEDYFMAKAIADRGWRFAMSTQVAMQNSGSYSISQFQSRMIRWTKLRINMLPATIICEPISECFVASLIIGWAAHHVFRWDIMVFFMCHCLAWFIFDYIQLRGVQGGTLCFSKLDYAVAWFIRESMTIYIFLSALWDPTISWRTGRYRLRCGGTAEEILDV
The assay is described as follows: GCS enzyme inhibition assay (A549 cell lysate, NBD C6-ceramide, HPLC fluorescence). The class given is biochemical. Particulars: inhibitory activity against GCS, 37° C., 90 minutes. As for the experimental part: Ibiglustat, known as a GCS inhibitor, was used as a control.
After the cells attached to the culture dish were washed with phosphate buffered saline (PBS), the cells were scraped off with a cell scraper and then centrifuged (4000 rpm, 3 min, 4° C.) to collect the cells in a 50 ml tube. The cell pellets were suspended in a lysis buffer (50 mM HEPES, pH 7.3, containing 1× the protease/phosphatase inhibitor cocktail), lysed by sonication, and then the lysate was centrifuged (13000 rpm, 10 min, 4° C.). The obtained supernatant was used for the quantitative analysis of proteins. The amount of proteins was measured using the BCA protein assay kit, using bovine serum albumin as a standard.
Enzymatic reactions were initiated by sequentially adding the following reaction materials to a 96 deep-well plate. Thereafter, the enzymatic reactions were performed at 37° C. for 90 minutes.
The enzymatic reactions were stopped by adding 100 μl of chloroform/methanol (2:1, v/v). After vortexing for 15 seconds, each mixture was centrifuged (4000 rpm, 10 min, 18° C.). The lower layer (50 μl) was transferred to a new 96 deep-well plate and dried with a reduced concentrator.
Data analysis was performed by the following equations. % Area(Sample)=Area(GlcCer)/[Area(Cer)+Area(GlcCer)]×100 % GCS activity=[Area(Sample)−Area(ibiglustat)]/[Area(DMSO)−Area(ibiglustat)]×100

On to `O=C(NC1CCOc2cc(-c3coc4ccccc34)ccc21)O[C@@H]1CN2CCC1CC2` (stereo partly drawn) [Example 43, (S)-quinuclidin-3-yl (7-(benzofuran-3-yl)chroman-4-yl)carbamate], for which the values for the pIC50 in assay [1] and in assay [2] were 10.70 and 9.24, respectively.

In the case of `O=C(NC1CCOc2cc(-c3cc4ccccc4o3)ccc21)O[C@@H]1CN2CCC1CC2` (stereo partly drawn) [Example 44, (S)-quinuclidin-3-yl (7-(benzofuran-2-yl)chroman-4-yl)carbamate], the values for the pIC50 in assay [1] and in assay [2] were 7.81 and 8.04, respectively.

As to `O=C(NC1CCOc2cc(-c3ccc4cc[nH]c4c3)ccc21)O[C@@H]1CN2CCC1CC2` (stereo partly drawn) [Example 45, (S)-quinuclidin-3-yl (7-(1H-indol-6-yl)chroman-4-yl)carbamate], the pIC50 (commonly the IC50 on a negative log10 scale, so that one unit is a factor of ten) was 7.58 in assay [1] and 8.38 in assay [2].

In the case of `O=C(NC1CCOc2cc(-c3c[nH]c4ccccc34)ccc21)O[C@@H]1CN2CCC1CC2` (stereo partly drawn) [Example 46, (S)-quinuclidin-3-yl (7-(1H-indol-3-yl)chroman-4-yl)carbamate], the pIC50 in assay [1] is 7.69; in assay [2] it was 8.39.

In the case of `O=C(NC1CCOc2cc(-c3cccc4cc[nH]c34)ccc21)O[C@@H]1CN2CCC1CC2` (stereo partly drawn) [Example 47, (S)-quinuclidin-3-yl (7-(1H-indol-7-yl)chroman-4-yl)carbamate], the negative-log IC50 (pIC50) in assay [1] was 7.98; in assay [2], 8.59.

Consider `O=C(NC1CCOc2cc(-c3cccc4[nH]ncc34)ccc21)O[C@@H]1CN2CCC1CC2` (stereo partly drawn) [Example 48, (S)-quinuclidin-3-yl (7-(1H-indazol-4-yl)chroman-4-yl)carbamate], for which the negative logarithm of the IC50 (pIC50) in assay [1] was 7.38; in assay [2], 8.20.

For the molecule `O=C(NC1CCOc2cc(-c3cccc4cn[nH]c34)ccc21)O[C@@H]1CN2CCC1CC2` (stereo partly drawn) [Example 49, (S)-quinuclidin-3-yl (7-(1H-indazol-7-yl)chroman-4-yl)carbamate], the pIC50 in assay [1] was 7.91; in assay [2], 8.42.

`Cn1ncc2ccc(-c3ccc4c(c3)OCCC4NC(=O)O[C@@H]3CN4CCC3CC4)cc21` (stereo partly drawn) [Example 50, (S)-quinuclidin-3-yl (7-(1-methyl-1H-indazol-6-yl)chroman-4-yl)carbamate]: the negative-log IC50 (pIC50) in assay [1] is 7.59; in assay [2], 8.40.

For the molecule `Cn1ncc2c(-c3ccc4c(c3)OCCC4NC(=O)O[C@@H]3CN4CCC3CC4)cccc21` (stereo partly drawn) [Example 51, (S)-quinuclidin-3-yl (7-(1-methyl-1H-indazol-4-yl)chroman-4-yl)carbamate], the results for the pIC50 in assay [1] and in assay [2] were 8.30 and 8.99, respectively.

With `Cn1c(-c2ccc3c(c2)OCCC3NC(=O)O[C@@H]2CN3CCC2CC3)cc2ccccc21` (stereo partly drawn) [Example 52, (S)-quinuclidin-3-yl (7-(1-methyl-1H-indol-2-yl)chroman-4-yl)carbamate], the figures for the pIC50 in assay [1] and in assay [2] were 7.61 and 8.15, respectively.

Take `O=C(NC1CCOc2cc(-c3cncc4ccccc34)ccc21)O[C@@H]1CN2CCC1CC2` (stereo partly drawn) [Example 53, (S)-quinuclidin-3-yl (7-(isoquinolin-4-yl)chroman-4-yl)carbamate]: the pIC50 was 8.58 in assay [1] and 8.75 in assay [2].

For the molecule `O=C(NC1CCOc2cc(-c3cccc4cnccc34)ccc21)O[C@@H]1CN2CCC1CC2` (stereo partly drawn) [Example 54, (S)-quinuclidin-3-yl (7-(isoquinolin-5-yl)chroman-4-yl)carbamate], the results for the pIC50 in assay [1] and in assay [2] were 7.85 and 8.67, respectively.

On to `O=C(NC1CCOc2cc(-c3cnc4ccccc4c3)ccc21)O[C@@H]1CN2CCC1CC2` (stereo partly drawn) [Example 55, (S)-quinuclidin-3-yl (7-(quinolin-3-yl)chroman-4-yl)carbamate], for which the figures for the negative logarithm of the IC50 (pIC50) in assay [1] and in assay [2] were 7.65 and 8.45, respectively.

Take `O=C(NC1CCOc2cc(-c3cccc4cccnc34)ccc21)O[C@@H]1CN2CCC1CC2` (stereo partly drawn) [Example 56, (S)-quinuclidin-3-yl (7-(quinolin-8-yl)chroman-4-yl)carbamate]: the pIC50 is 8.22 in assay [1] and 8.86 in assay [2].

As to `O=C(NC1CCOc2cc(-c3ccc4ccncc4c3)ccc21)O[C@@H]1CN2CCC1CC2` (stereo partly drawn) [Example 57, (S)-quinuclidin-3-yl (7-(isoquinolin-7-yl)chroman-4-yl)carbamate], the values for the pIC50 in assay [1] and in assay [2] were 7.44 and 8.45, respectively.

For the molecule `O=C(NC1CCOc2cc(-c3ccc4c(c3)OCCCO4)ccc21)O[C@@H]1CN2CCC1CC2` (stereo partly drawn) [Example 58, (S)-quinuclidin-3-yl (7-(3,4-dihydro-2H-benzo[b][1,4]dioxepin-7-yl)chroman-4-yl)carbamate], the pIC50 is 7.67 in assay [1] and 8.70 in assay [2].

Take `O=C(NC1CCOc2cc(-c3cccc(-c4ccccc4)c3)ccc21)O[C@@H]1CN2CCC1CC2` (stereo partly drawn) [Example 59, (S)-quinuclidin-3-yl (7-([1,1′-biphenyl]-3-yl)chroman-4-yl)carbamate]: the pIC50 is 8.65 in assay [1] and 9.52 in assay [2].

As to `O=C(NC1CCOc2cc(-c3cccc(S(=O)(=O)N4CCCC4)c3)ccc21)O[C@@H]1CN2CCC1CC2` (stereo partly drawn) [Example 60, (S)-quinuclidin-3-yl (7-(3-(pyrrolidin-1-ylsulfonyl)phenyl)chroman-4-yl)carbamate], the pIC50 is 7.78 in assay [1] and 8.62 in assay [2].

On to `O=C(NC1CCOc2cc(-c3ccc4c(c3)COC4)ccc21)O[C@@H]1CN2CCC1CC2` (stereo partly drawn) [Example 61, (S)-quinuclidin-3-yl (7-(1,3-dihydroisobenzofuran-5-yl)chroman-4-yl)carbamate], for which the negative logarithm of the IC50 (pIC50) was 7.40 in assay [1] and 8.87 in assay [2].

For the molecule `O=C(NC1CCOc2cc(-c3ccc4nsnc4c3)ccc21)O[C@@H]1CN2CCC1CC2` (stereo partly drawn) [Example 62, (S)-quinuclidin-3-yl (7-(benzo[c][1,2,5]thiadiazol-5-yl)chroman-4-yl)carbamate], the values for the pIC50 in assay [1] and in assay [2] were 7.67 and 8.99, respectively.

As to `CN1CCOc2cc(-c3ccc4c(c3)OCCC4NC(=O)O[C@@H]3CN4CCC3CC4)ccc21` (stereo partly drawn) [Example 63, (S)-quinuclidin-3-yl (7-(4-methyl-3,4-dihydro-2H-benzo[b][1,4]oxazin-7-yl)chroman-4-yl)carbamate], the pIC50 is 7.57 in assay [1] and 8.88 in assay [2].

Regarding `O=C(NC1CCOc2cc(-c3ccsc3)ccc21)O[C@@H]1CN2CCC1CC2` (stereo partly drawn) [Example 64, (S)-quinuclidin-3-yl (7-(thiophen-3-yl)chroman-4-yl)carbamate], the pIC50 in assay [1] is 7.72; in assay [2] it was 8.88.

In the case of `COc1ccc(Cl)c(-c2ccc3c(c2)OCCC3NC(=O)O[C@@H]2CN3CCC2CC3)c1` (stereo partly drawn) [Example 65, (S)-quinuclidin-3-yl (7-(2-chloro-5-methoxyphenyl)chroman-4-yl)carbamate], the pIC50 is 8.93 in assay [1] and 9.66 in assay [2].

With `COc1cc(-c2ccc3c(c2)OCCC3NC(=O)O[C@@H]2CN3CCC2CC3)ccc1Cl` (stereo partly drawn) [Example 66, (S)-quinuclidin-3-yl (7-(4-chloro-3-methoxyphenyl)chroman-4-yl)carbamate], the results for the pIC50 in assay [1] and in assay [2] were 7.95 and 8.76, respectively.

On to `COc1cccc(-c2ccc3c(c2)OCCC3NC(=O)O[C@@H]2CN3CCC2CC3)c1Cl` (stereo partly drawn) [Example 67, (S)-quinuclidin-3-yl (7-(2-chloro-3-methoxyphenyl)chroman-4-yl)carbamate], for which the pIC50 in assay [1] is 7.95; in assay [2] it was 9.03.

As to `COc1cc(-c2ccc3c(c2)OCCC3NC(=O)O[C@@H]2CN3CCC2CC3)ccn1` (stereo partly drawn) [Example 68, (S)-quinuclidin-3-yl (7-(2-methoxypyridin-4-yl)chroman-4-yl)carbamate], the pIC50 in assay [1] was 7.55; in assay [2] it was 8.44.

Turning to `CN(C)c1cc(-c2ccc3c(c2)OCCC3NC(=O)O[C@@H]2CN3CCC2CC3)ccc1F` (stereo partly drawn) [Example 69, (S)-quinuclidin-3-yl (7-(3-(dimethylamino)-4-fluorophenyl)chroman-4-yl)carbamate], the pIC50 in assay [1] is 8.05; in assay [2], 8.72.

On to `O=C(NC1CCOc2cc(-c3ccc4c(c3)CCCO4)ccc21)O[C@@H]1CN2CCC1CC2` (stereo partly drawn) [Example 70, (S)-quinuclidin-3-yl [6,7′-bichroman]-4′-ylcarbamate], for which the pIC50 is 8.24 in assay [1] and 9.23 in assay [2].

For the molecule `COc1ncc(-c2ccc3c(c2)OCCC3NC(=O)O[C@@H]2CN3CCC2CC3)cc1C(F)(F)F` (stereo partly drawn) [Example 71, (S)-quinuclidin-3-yl (7-(6-methoxy-5-(trifluoromethyl)pyridin-3-yl)chroman-4-yl)carbamate], the pIC50 is 7.41 in assay [1] and 8.28 in assay [2].
